Entries after “also recorded” stand apart in the source; their conditions may differ.
What was measured:
[1] = tested on: type III collagen, tenascin and fibronectin; experiment: Western blot of TGF-β1 activated rabbit corneal keratocytes: type III collagen, tenascin, fibronectin; type: cell-based; conditions: TGF-β1 (10 ng/ml)+1% FBS, two days, compared to controls with no treatment
Protocol: (§1) FIGS. 19A and 19B. Western blot analyses: Rabbit corneal keratocytes were isolated and cultured in serum-free DMEM/F12 into 60 mm tissue culture dishes. After 24 hrs of incubation, the media were replaced with DMEM/F12 medium containing TGF-β1(10 ng/ml)+1% FBS without (control) or with EP or EP-derivatives for two days. The cells were extracted in RIPA buffer and the extracts containing 5 μg of total proteins were loaded per lane for Western blot analysis.
(§2) Keratocytes or fibroblasts grown under different culture conditions were extracted in RIPA buffer (9.1 mM dibasic sodium phosphate, 1.7 mM monobasic sodium phosphate, 150 mM NaCl, pH, 7.4, 1% Nonidet P-40, 0.5% sodium deoxycholate, 0.1% SDS, 0.03 TIU/mL aprotinin, 1 mM sodium orthovanadate, and 100 μg/mL phenylmethylsulfonyl fluoride (PMSF)). Aliquots of cell extracts containing 50 or 100 μg protein were subjected to SDS-PAGE. Protein bands on SDS-PAGE were electrophoretically transferred to IMMOBILON-P™ membrane (Millipore Corp., Bedford, Mass.), stained with 0.1% Coomassie blue 250 in 40% methanol/1% acetic acid for 1 minute, destained one to three times with 50% methanol/1% acetic acid, scanned for densitometric comparisons of relative concentrations of proteins per lane, destained with methanol, and subjected to Western blot analysis. Immunoreactive bands were detected using chemiluminescence Western chemiluminescence reagents.
(§3) As described in Example 1, corneal stromal cells were isolated from rabbit corneas and cultured using the same procedures. The keratocytes in serum free media were treated with b-FGF (40 ng/ml)+HS (5 μg/ml) with or without 15 mM EP or 1, 2.5 or 5 mM following EP derivatives: 2-oxopropionic acid 3-methoxyphenyl ester, 2-oxopropionic acid 2-ethoxyethyl ester, 2-oxopropionic acid 2-chloroethyl ester, 2-oxopropionic acid isopropyl ester, 2-oxopropionic acid butyl ester, 2-oxopropionic acid p-tolyl ester, 2-oxopropionic acid tert-butyl ester. […] The relative levels of the expression of specific proteins were analyzed by Western blot analyses of the cell lysates as described supra.

[2] = tested on: alpha-smooth muscle actin; experiment: Western blot of TGF-β1 activated rabbit corneal keratocytes: alpha-smooth muscle actin; type: cell-based; conditions: TGF-β1 (10 ng/ml)+1% FBS, two days, compared to controls with no treatment
Protocol: as §1, §2, §3

| Structure (SMILES) | levels of type III collagen, tenascin and fibronectin (Western blot) [1] | alpha-smooth muscle actin levels (Western blot) [2] |
| --- | --- | --- |
| CC(=O)C(=O)Oc1ccc(C)cc1 [2-oxopropionic acid p-tolyl ester] | reduced levels | reduced expression; also recorded: reduced levels |
| CC(=O)C(=O)OCCCl [2-oxopropionic acid 2-chloroethyl ester] | reduced levels | reduced expression; also recorded: reduced levels |

Source: patent US8815946B2, “Inhibition of proliferation and fibrotic response of activated corneal stromal cells” (University of Pittsburgh—of the Commonwealth System of …, priority 2008, dated 2014)
